Data as given in paper PMC6272905, “In Vitro and In Vivo Characterization of Selected Fluorine-18 Labeled Radioligands for PET Imaging of the Dopamine D3 Receptor” (Molecules, 2016).

How the values were obtained:
dopamine D3 receptor = test: Dynamic small-animal PET recordings; type: in vivo; conditions: rat
Procedure: Small-animal PET imaging studies were conducted with male Sprague Dawleys rats (250–300 g) on a Inveon microPET scanner (Siemens Healthcare, Erlangen, Germany) under isoflurane (3%) anesthesia. After intravenous injection of [^18F]2b (10–15 MBq), dynamic emission recordings consisting of 13 frames of duration increasing from 30 s to 10 min were acquired to a total of 60 min. For displacement studies BP897 (1 mg/kg) was administered 30 min prior to radioligand injection. Dynamic emission images were corrected for attenuation and decay, and reconstructed by the iterative maximum a posteriori estimation, using software installed in the Inveon PET for dead time and random correction. The dynamic PET scan was then evaluated using the software Amide. The regions of interest were evaluated voxel based and the mean activity in %ID/g of each frame calculated.

[1] = In vivo stability in blood of living rats (radiometabolites); parameters: species or system rat
Procedure: For the determination of radioligand stability in vivo and detection of radiometabolites the respective radiotracer (15 MBq) was administered intravenous to male Sprague Dawley rats (200–250 g) under isoflurane anesthesia. Blood samples were drawn intravenous after 5, 15 and 30 min and centrifuged for 5 min at 2000 rpm in heparin-coated vials. An aliquot of 50 µL was taken from the supernatant and added to an equal volume of water (10% TFA). The protein precipitate was centrifuged off for 5 min at 25,000 rpm and an aliquot of the supernatant was fractioned with HPLC (Chromolith RP-18e, 100 mm × 4.6 mm, 4 mL/min, solvent A: water (0.1% TFA), solvent B: acetonitrile (0.1% TFA), gradient A/B: 90:10 to 0:100 in 15 min, λ = 214 nm). The fractions were then analyzed in the gamma-counter. To identify the fractions containing the intact radioligand, the retention time and fractioning of the respective tracer was previously assessed. Two independent experiments were performed.

D3 receptor = target: T1, D3 receptor (Rattus norvegicus, UniProt P19020); test: In vitro autoradiography of coronal rat brain sections; type: binding; conditions: displacement with BP897
T1 construct: In vitro autoradiography of coronal rat brain sections after incubation with the respective radioligand; from tissue; host or cells: coronal brain cryosections (20 µm) of male Sprague Dawley rats
Procedure: Male Sprague Dawley rats (200–250 g) were sacrificed by decapitation under deep isoflurane anesthesia and brains were removed and frozen in cooled hexane at −70 °C. Coronal brain sections (20 µm) were cut on a cryostat microtome (HM550, Microm-Thermo Fisher Scientific, Walldorf, Germany) and thaw-mounted on covered glass slides (Histobond®, Marienfeld, Lauda Königshofen, Germany). The thaw mounted sections were stored at −20 °C up to 14 days.
The cryostat sections were pre-incubated for 15 min in incubation buffer (50 mM Tris-HCl, 40 mM NaCl, pH 7.4) at room temperature. The sections were then placed in incubation buffer containing 5 MBq of the respective tracer. For displacement studies BP897 (50 nM or 1 µM) was added. The sections were incubated at room temperature for 45 min and afterwards washed in ice cold incubation buffer for 3 × 5 min. Subsequently, they were dipped in water and after drying placed on a phosphor imaging screen (Fujitsu, Berlin, Germany) over night. The screens were analyzed with a DUERR Medical HD-CR 35 Bio (Raytest, Straubenhardt, Germany) and evaluated using the software AIDA image analyzer (Raytest). For anatomical identification of brain regions, the sections were compared with figures in the rat brain atlas.

T1 sequence (P19020 whole entry): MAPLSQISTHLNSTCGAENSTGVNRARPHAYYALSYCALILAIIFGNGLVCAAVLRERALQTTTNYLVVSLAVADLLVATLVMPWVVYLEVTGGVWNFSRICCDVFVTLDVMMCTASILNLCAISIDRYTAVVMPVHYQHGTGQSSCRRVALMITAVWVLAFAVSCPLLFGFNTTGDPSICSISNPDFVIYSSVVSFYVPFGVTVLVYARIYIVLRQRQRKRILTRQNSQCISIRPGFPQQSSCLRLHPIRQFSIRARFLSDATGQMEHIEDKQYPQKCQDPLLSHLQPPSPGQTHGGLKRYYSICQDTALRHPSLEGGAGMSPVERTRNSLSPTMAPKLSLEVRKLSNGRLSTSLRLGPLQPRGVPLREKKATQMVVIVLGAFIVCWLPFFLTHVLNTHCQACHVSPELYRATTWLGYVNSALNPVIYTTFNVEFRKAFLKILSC

**Q.** Which “uptake in the third and lateral ventricle” value (dopamine D3 receptor) does the source give for `COc1ccccc1N1CCN(CCCCNC(=O)/N=N/c2ccc([18F])cc2)CC1` [[^18F]2b] here?
**A.** Its value is “approximately 0.25 %ID/g”.

**Q.** And the “uptake in the pituitary gland” value (dopamine D3 receptor; 30 min p.i.)?
**A.** The value was 0.8 %ID/g.

**Q.** And the “blocking of fourth ventricle uptake with BP897” value (dopamine D3 receptor; BP897 1 mg/kg)?
**A.** Its value is 50%.

**Q.** What about the “decrease of initial and mean pituitary gland uptake by blocking with BP897” value (dopamine D3 receptor; BP897 1 mg/kg) of the same compound?
**A.** The value was 35%.

**Q.** What about the “uptake in the pituitary gland” value (dopamine D3 receptor; after approximately 5 min) of the same compound?
**A.** The value was 0.94 %ID/g.

**Q.** What about the “maximum uptake in the cerebral matter” value (dopamine D3 receptor; at 65 s post intravenous injection) of the same compound?
**A.** The value was 0.14 %ID/g.

**Q.** What about the “uptake in the pituitary gland” value (dopamine D3 receptor; end of the recording) of the same compound?
**A.** The value was 0.76 %ID/g.

**Q.** And the “uptake in the fourth ventricle” value (dopamine D3 receptor; initial uptake, constant over the 60 min of recording)?
**A.** The value was 0.4 %ID/g.

**Q.** And the “uptake in the cerebral matter after wash-out” value (dopamine D3 receptor; over the 60 min of recording)?
**A.** The value was 0.07 %ID/g.

**Q.** What about the “intact tracer in rat plasma” value ([1]; 5 min after i.v. injection) of the same compound?
**A.** Its value is 49%.

**Q.** What about the “intact tracer in rat plasma” value ([1]; 30 min after i.v. injection) of the same compound?
**A.** The value was 37%.

**Q.** And the “binding pattern in rat brain sections” value (D3 receptor)?
**A.** The value was “D3 specific binding was visible”.
